According to PubChem BioAssay (NCI):
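Cultured in 96-well plates, cells were exposed to test compound for 48 hours across five concentrations. TGI is the concentration that stops growth completely.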

How the values were obtained:
Assay in all cases: DTP human tumour cell line panel, 48 h
[1] = test system: SNB-19 CNS
[2] = test system: SNB-75 CNS
[3] = test system: MOLT-4 leukemia
[4] = test system: UO-31 renal
[5] = test system: A498 renal
[6] = test system: OVCAR-8 ovarian
[7] = test system: SF-268 CNS
[8] = test system: M14 melanoma
[9] = test system: T-47D breast
[10] = test system: CAKI-1 renal
[11] = test system: SK-OV-3 ovarian
[12] = test system: SN12C renal
[13] = test system: NCI-H226 lung
[14] = test system: OVCAR-4 ovarian
[15] = test system: OVCAR-5 ovarian
[16] = test system: HT29 colon
[17] = test system: RPMI-8226 leukemia
[18] = test system: U251 CNS
[19] = test system: SNB-78 CNS
[20] = test system: SF-295 CNS
[21] = test system: COLO 205 colon
[22] = test system: MCF7 breast
[23] = test system: HOP-62 NSCLC
[24] = test system: SW-620 colon
[25] = test system: MDA-MB-231 breast
[26] = test system: HOP-18 NSCLC
[27] = test system: NCI-H460 lung
[28] = test system: NCI-H522 lung
[29] = test system: HCC-2998 colon
[30] = test system: 786-0 renal
[31] = test system: HCT-15 colon
[32] = test system: HS 578T breast
[33] = test system: SR leukemia
[34] = test system: MDA-MB-435
[35] = test system: LOX IMVI melanoma
[36] = test system: NCI-H23 lung
[37] = test system: ACHN renal
[38] = test system: DMS 114 small cell lung
[39] = test system: M19-MEL melanoma
[40] = test system: HL-60(TB) leukemia
[41] = test system: LXFL 529 NSCLC
[42] = test system: EKVX NSCLC
[43] = test system: RXF 393 renal
[44] = test system: RXF-631 renal
[45] = test system: BT-549 breast
[46] = test system: OVCAR-3 ovarian
[47] = test system: SK-MEL-5 melanoma
[48] = test system: MALME-3M melanoma
[49] = test system: DMS 273 small cell lung
[50] = test system: PC-3 prostate
[51] = test system: K-562 leukemia
[52] = test system: DLD-1 colon
[53] = test system: MDA-N
[54] = test system: HCT-116 colon
[55] = test system: A549 NSCLC
[56] = test system: TK-10 renal
[57] = test system: SF-539 CNS
[58] = test system: HOP-92 NSCLC
[59] = test system: IGROV1 ovarian
[60] = test system: KM12 colon
[61] = test system: UACC-62 melanoma
[62] = test system: KM20L2 colon
[63] = test system: UACC-257 melanoma
[64] = test system: DU-145 prostate
[65] = test system: SK-MEL-28 melanoma
[66] = test system: SK-MEL-2 melanoma
[67] = test system: CCRF-CEM leukemia
[68] = test system: XF 498 CNS

Structure (SMILES): O=C1C=CC(=O)c2ccc(=O)ccc21
- TGI [1]: 27.1 µM
- TGI [2]: 39 µM
- TGI [3]: 5.69 µM
- TGI [4]: 22.1 µM
- TGI [5]: 41.6 µM
- TGI [6]: 64.5 µM
- TGI [7]: 32.9 µM
- TGI [8]: 31.1 µM
- TGI [9]: 5.55 µM
- TGI [10]: 21 µM
- TGI [11]: 48.8 µM
- TGI [12]: 32.2 µM
- TGI [13]: 58.9 µM
- TGI [14]: 27.8 µM
- TGI [15]: 35 µM
- TGI [16]: 50.5 µM
- TGI [17]: > 29.7 µM
- TGI [18]: 30.1 µM
- TGI [19]: 64.5 µM
- TGI [20]: 37.1 µM
- TGI [21]: 18.9 µM
- TGI [22]: > 100 µM
- TGI [23]: 51.5 µM
- TGI [24]: 14.4 µM
- TGI [25]: 45.5 µM
- TGI [26]: 39.1 µM
- TGI [27]: 43.2 µM
- TGI [28]: 5.82 µM
- TGI [29]: 31.3 µM
- TGI [30]: 32.8 µM
- TGI [31]: 35.8 µM
- TGI [32]: > 100 µM
- TGI [33]: 6.3 µM
- TGI [34]: 46 µM
- TGI [35]: > 54.1 µM
- TGI [36]: 45.5 µM
- TGI [37]: 23.5 µM
- TGI [38]: 33.9 µM
- TGI [39]: 25.5 µM
- TGI [40]: 15.8 µM
- TGI [41]: 11.1 µM
- TGI [42]: 50.7 µM
- TGI [43]: 16.3 µM
- TGI [44]: 42.3 µM
- TGI [45]: 31.9 µM
- TGI [46]: 26.7 µM
- TGI [47]: 38.3 µM
- TGI [48]: 39.6 µM
- TGI [49]: 58.1 µM
- TGI [50]: 33 µM
- TGI [51]: 14.6 µM
- TGI [52]: 15.6 µM
- TGI [53]: 28.8 µM
- TGI [54]: 31.6 µM
- TGI [55]: 64.2 µM
- TGI [56]: 33.9 µM
- TGI [57]: 43.5 µM
- TGI [58]: 3.72 µM
- TGI [59]: 33.6 µM
- TGI [60]: 37.4 µM
- TGI [61]: 29.9 µM
- TGI [62]: 46.2 µM
- TGI [63]: 30.4 µM
- TGI [64]: 59.9 µM
- TGI [65]: 42.6 µM
- TGI [66]: 34.8 µM

Structure (SMILES): C/C(O)=C/c1nc2ccccc2[nH]1
- TGI [1]: > 100 µM
- TGI [2]: 78.8 µM
- TGI [3]: > 100 µM
- TGI [4]: > 100 µM
- TGI [6]: > 100 µM
- TGI [7]: > 100 µM
- TGI [8]: > 100 µM
- TGI [10]: > 100 µM
- TGI [12]: > 100 µM
- TGI [13]: > 100 µM
- TGI [14]: > 100 µM
- TGI [15]: > 100 µM
- TGI [16]: > 100 µM
- TGI [17]: > 100 µM
- TGI [18]: > 100 µM
- TGI [19]: > 100 µM
- TGI [20]: > 100 µM
- TGI [21]: > 100 µM
- TGI [24]: > 100 µM
- TGI [67]: > 100 µM
- TGI [27]: > 100 µM
- TGI [28]: > 100 µM
- TGI [29]: > 100 µM
- TGI [30]: > 100 µM
- TGI [31]: > 100 µM
- TGI [33]: > 100 µM
- TGI [35]: > 100 µM
- TGI [36]: > 100 µM
- TGI [37]: > 100 µM
- TGI [39]: > 100 µM
- TGI [40]: > 100 µM
- TGI [41]: > 100 µM
- TGI [42]: > 100 µM
- TGI [43]: > 100 µM
- TGI [44]: > 100 µM
- TGI [46]: > 100 µM
- TGI [68]: > 100 µM
- TGI [47]: > 100 µM
- TGI [48]: > 100 µM
- TGI [51]: > 100 µM
- TGI [52]: > 100 µM
- TGI [54]: > 100 µM
- TGI [55]: > 100 µM
- TGI [57]: > 100 µM
- TGI [59]: > 100 µM
- TGI [60]: > 100 µM
- TGI [61]: > 100 µM
- TGI [62]: > 100 µM
- TGI [63]: > 100 µM
- TGI [65]: > 100 µM
- TGI [66]: > 100 µM
